Tests used:
[1] = biological target: T1, EGFR TMLRCS (T790M/L858R/C797S), BaF3-TMLRCS cell line (Homo sapiens, UniProt P00533, C797S/L858R/T790M); test: HTRF Phospho EGFR TMLRCS Assay (Cellular); type: cell-based; details: BaF3-TMLRCS cells, 4 hours compound incubation
T1 construct: host or cells: BaF3
Method: HTRF Phospho EGFR TMLRCS Assay (Cellular)
BaF3-TMLRCS cell line were obtained from Crownbio (San Diego, Calif., USA). Cells were maintained at 37° C., 5% CO2 in RPMI ATCC (Gibco 31870) +2mM Glutamine+0.5 μg/ml Puromycin supplemented with 10% fetal bovine serum (FBS) (Gibco).
Cells are transferred as above to Greiner Bio-One, Nr. 784-08 micro-titerplate at 20000 cells/well in 12.5 μl of growth medium/well after the plates had been pre-filled with 12.5 nl of DMSO solutions of the to be tested compounds (in dose response) or DMSO only. After spinning the plates at 300×g for 30 seconds the cells were incubated for 4 hours at 37 C, 5% CO2, 95% humidity. The cells were lysed by adding to the compound mix 4 μl/well of the supplemented lysis buffer (Cis-bio, Phospho-EGFR HTRF kit, 64EG1PEH), followed by incubation for 30 min at room temperature with shaking (400 rpm). The plates were then frozen and stored overnight at −80 C. On the next day and after thawing the plates, 4 μl of a mixture of anti-Phospho-EGFR Cryptate and of anti-Phospho-EGFR-d2 antibody solutions prepared in the supplied detection buffer was added to each well. The lidded plates were then incubated for 4 h at room temperature before reading the fluorescence emission at 616 and 665 nm using an Envision reader (Perkin Elmer). Data was analyzed in similar fashion as above using the normalized ratio of the 665 to 616 signals multiplied by 10000.

[2] = biological target: T2, EGFR TMLR (T790M/L858R), H1975 cell line (Homo sapiens, UniProt P00533, L858R/T790M); test: HTRF Phospho EGFR TMLR Assay (Cellular); type: cell-based; details: H1975 cells, 16 hours compound incubation
T2 construct: H1975 cell line (CRL-5908; Lot BA70803) was obtained from American Type Culture Collection; host or cells: H1975
T2 sequence (P00533 25-1210 T790M/L858R): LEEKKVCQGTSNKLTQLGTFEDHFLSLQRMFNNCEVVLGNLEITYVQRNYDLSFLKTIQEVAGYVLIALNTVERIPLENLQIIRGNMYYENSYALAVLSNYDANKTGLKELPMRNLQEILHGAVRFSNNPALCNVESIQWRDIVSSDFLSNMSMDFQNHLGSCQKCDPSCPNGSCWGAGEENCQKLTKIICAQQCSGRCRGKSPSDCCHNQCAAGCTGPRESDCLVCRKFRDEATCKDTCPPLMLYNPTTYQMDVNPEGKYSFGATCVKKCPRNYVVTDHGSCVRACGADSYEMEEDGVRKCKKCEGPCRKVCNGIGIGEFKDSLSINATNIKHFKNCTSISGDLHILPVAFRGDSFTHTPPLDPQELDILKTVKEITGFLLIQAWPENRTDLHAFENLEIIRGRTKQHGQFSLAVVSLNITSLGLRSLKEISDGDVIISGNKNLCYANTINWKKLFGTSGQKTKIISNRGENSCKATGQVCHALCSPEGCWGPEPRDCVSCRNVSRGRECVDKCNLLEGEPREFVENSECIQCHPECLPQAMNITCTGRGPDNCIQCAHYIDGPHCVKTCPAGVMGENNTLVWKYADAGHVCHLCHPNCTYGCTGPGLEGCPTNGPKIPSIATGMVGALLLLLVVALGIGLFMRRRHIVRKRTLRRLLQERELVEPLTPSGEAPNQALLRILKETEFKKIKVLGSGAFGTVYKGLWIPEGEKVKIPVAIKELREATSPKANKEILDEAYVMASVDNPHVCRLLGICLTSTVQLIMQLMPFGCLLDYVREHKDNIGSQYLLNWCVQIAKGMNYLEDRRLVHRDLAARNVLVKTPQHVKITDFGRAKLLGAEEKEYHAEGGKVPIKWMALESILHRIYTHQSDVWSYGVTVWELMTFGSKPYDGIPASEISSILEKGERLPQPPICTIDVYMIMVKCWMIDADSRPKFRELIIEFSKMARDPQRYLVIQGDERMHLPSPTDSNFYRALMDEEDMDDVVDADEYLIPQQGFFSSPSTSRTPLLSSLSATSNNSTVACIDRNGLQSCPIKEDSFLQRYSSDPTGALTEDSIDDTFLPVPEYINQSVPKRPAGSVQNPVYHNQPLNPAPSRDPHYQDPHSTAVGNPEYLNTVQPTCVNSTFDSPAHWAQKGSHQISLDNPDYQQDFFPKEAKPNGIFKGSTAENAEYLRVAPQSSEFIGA
Method: HTRF Phospho EGFR TMLR Assay (Cellular)
H1975 cell line (CRL-5908; Lot BA70803) was obtained from American Type Culture Collection (Manassas, Va., USA). Cells were maintained at 37° C., 5% CO2 in complete Media RPMI 1640 without phenol red containing 0.3 mg/ml glutamine, 100 IU/ml penicillin, and […] streptomycin (Gibco, 15140-122) supplemented with 10% fetal bovine serum (FBS, Gibco, 10091-148). Compounds were diluted into starving medium RPMI 1640 Media (Gibco, 11835-030) without phenol red containing 0.3 mg/ml glutamine, 100 IU/ml penicillin, and […] streptomycin (Gibco).
Cells were cultured for 24 h in a 384-well plate (Greiner Bio-One, Nr. 784-080; 5000 cells/well) using 8 μl of complete medium/well. Then 4 μl/well of the 3× compound solution, containing a factor 3 dilution series of the compound or DMSO in starving medium, were added to the cells (final DMSO 0.33%). After 16 hours at 37° C., 5% CO2, 95% rel. humidity cells were lysed by adding to the compound mix 4 μl/well of the supplemented lysis buffer (Cis-bio, Phospho-EGFR HTRF kit, 64EG1PEH), followed by incubation for 30 min at room temperature with shaking (400 rpm). Then 4 μl of a mixture of anti-Phospho-EGFR Cryptate and of anti-Phospho-EGFR-d2 antibody solutions prepared in the detection buffer was added. The plates were then incubated for 4 h at room temperature before reading the fluorescence emission at 620 and 665 nm using an Envision reader (Perkin Elmer).

T1 sequence (P00533 25-1210 T790M/C797S/L858R): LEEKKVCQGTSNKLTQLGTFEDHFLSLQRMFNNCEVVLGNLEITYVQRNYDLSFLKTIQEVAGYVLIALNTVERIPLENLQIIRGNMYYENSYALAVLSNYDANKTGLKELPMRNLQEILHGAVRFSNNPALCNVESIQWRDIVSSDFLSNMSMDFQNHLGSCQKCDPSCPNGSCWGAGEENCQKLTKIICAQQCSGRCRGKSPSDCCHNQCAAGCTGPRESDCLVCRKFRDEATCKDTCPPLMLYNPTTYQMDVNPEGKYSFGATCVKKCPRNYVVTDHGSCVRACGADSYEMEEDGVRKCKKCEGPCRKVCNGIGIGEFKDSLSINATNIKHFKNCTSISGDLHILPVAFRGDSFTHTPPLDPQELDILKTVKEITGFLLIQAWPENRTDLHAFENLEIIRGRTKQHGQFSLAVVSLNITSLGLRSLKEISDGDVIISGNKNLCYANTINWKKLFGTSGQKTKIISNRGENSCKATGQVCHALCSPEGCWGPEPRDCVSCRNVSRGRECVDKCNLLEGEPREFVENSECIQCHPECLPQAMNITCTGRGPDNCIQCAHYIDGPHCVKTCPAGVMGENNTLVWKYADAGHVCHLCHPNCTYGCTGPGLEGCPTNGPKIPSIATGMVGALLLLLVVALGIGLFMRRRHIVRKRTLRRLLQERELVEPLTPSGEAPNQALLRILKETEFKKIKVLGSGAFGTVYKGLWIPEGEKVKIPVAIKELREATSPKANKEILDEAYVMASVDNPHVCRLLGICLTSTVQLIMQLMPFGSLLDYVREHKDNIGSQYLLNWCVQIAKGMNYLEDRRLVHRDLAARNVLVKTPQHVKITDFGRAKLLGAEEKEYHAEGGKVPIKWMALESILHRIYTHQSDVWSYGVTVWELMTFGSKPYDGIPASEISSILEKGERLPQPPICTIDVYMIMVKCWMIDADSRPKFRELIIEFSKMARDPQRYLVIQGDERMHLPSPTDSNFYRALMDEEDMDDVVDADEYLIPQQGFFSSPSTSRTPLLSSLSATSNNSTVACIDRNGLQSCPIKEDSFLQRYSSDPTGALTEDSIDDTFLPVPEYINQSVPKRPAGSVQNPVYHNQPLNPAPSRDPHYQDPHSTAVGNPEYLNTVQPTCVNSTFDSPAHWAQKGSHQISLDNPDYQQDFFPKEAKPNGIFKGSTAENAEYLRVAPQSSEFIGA

| Structure (SMILES) | IC50 [1] | IC50 [2] |
| --- | --- | --- |
| COc1c(-c2ccc(N3CCOCC3)cc2)cc(Cl)c2cn(C(C(=O)Nc3nccs3)c3ncn4c3C[C@@H](F)C4)nc12 (mixture of isomers) [Example 19, 2-[4-Chloro-7-methoxy-6-(4-morpholin-4-ylphenyl)indazol-2-yl]-2-[rac-(6R)-6-fluoro-6,7-dihydro-5H-pyrrolo[1,2-c]imidazol-1-yl]-N-(1,3-thiazol-2-yl)acetamide] | 7 nM | 1 nM |
| O=C(Nc1nccs1)C(c1ncn2c1CCC2)n1cc2c(Cl)cc(-c3ccc(N4CCOCC4)cc3)c(Cl)c2n1 (stereo not drawn) [Example 14, 2-(4,7-Dichloro-6-(4-morpholinophenyl)-2H-indazol-2-yl)-2-(6,7-dihydro-5H-pyrrolo[1,2-c]imidazol-1-yl)-N-(thiazol-2-yl)acetamide] | 22 nM | 3 nM |
| O=C(Nc1nccs1)C(c1ncn2c1CCC2)n1cc2c(Cl)cc(-c3ccc(N4CCOCC4)cc3)c(F)c2n1 (stereo not drawn) [Example 10, 2-(4-Chloro-7-fluoro-6-(4-morpholinophenyl)-2H-indazol-2-yl)-2-(6,7-dihydro-5H-pyrrolo[1,2-c]imidazol-1-yl)-N-(thiazol-2-yl)acetamide] | – | 1 nM |
| O=C(Nc1nccs1)C(c1ncn2c1C[C@@H](F)C2)n1cc2c(F)cc(-c3ccc(N4CCOCC4)c(F)c3)cc2n1 (stereo partly drawn) [Example 5, 2-((R)-6-Fluoro-6,7-dihydro-5H-pyrrolo[1,2-c]imidazol-1-yl)-2-(4-fluoro-6-(3-fluoro-4-morpholinophenyl)-2H-indazol-2-yl)-N-(thiazol-2-yl)acetamide] | 5 nM | 1 nM |
| O=C(Nc1nccs1)C(c1ncn2c1CCC2)n1cc2c(F)cc(-c3ccc(N4CCOCC4)c(F)c3)cc2n1 (stereo not drawn) [Example 11, 2-(6,7-Dihydro-5H-pyrrolo[1,2-c]imidazol-1-yl)-2-(4-fluoro-6-(3-fluoro-4-morpholinophenyl)-2H-indazol-2-yl)-N-(thiazol-2-yl)acetamide] | – | 1 nM |
| O=C(Nc1nccs1)C(c1ncn2c1CCC2)n1cc2c(Cl)cc(-c3ccc(N4CCOCC4)c(F)c3)c(F)c2n1 (stereo not drawn) [Example 17, 2-(4-Chloro-7-fluoro-6-(3-fluoro-4-morpholinophenyl)-2H-indazol-2-yl)-2-(6,7-dihydro-5H-pyrrolo[1,2-c]imidazol-1-yl)-N-(thiazol-2-yl)acetamide] | – | 2 nM |

— patent publication US20220315593A1, “EGFR INHIBITORS FOR THE TREATMENT OF CANCER” (Hoffmann-La Roche Inc., priority 2019, published 2022)
